Measured values published in ChEMBL document CHEMBL1145390, “Synthesis and preliminary biological characterization of new semisynthetic derivatives of ramoplanin” (J Med Chem, 2007).
In brackets after ≈: the same amount, converted by molar mass.

Key:
[1] = system: Enterococcus faecalis; experiment: Antibacterial activity against Enterococcus faecalis after 24 hrs by broth microdilution method; type: functional
[2] = system: Staphylococcus aureus; experiment: Antibacterial activity against Staphylococcus aureus Smith after 24 hrs by broth microdilution method; type: functional
[3] = system: Staphylococcus aureus; experiment: Antibacterial activity against methicillin-resistant Staphylococcus aureus clinical isolate after 24 hrs by broth microdilution method; type: functional; conditions: read-out: MIC
[4] = system: Staphylococcus aureus; experiment: Antibacterial activity against methicillin-resistant and vancomycin-intermediate resistant Staphylococcus aureus clinical isolate after 24 hrs by broth microdilution method; type: functional
[5] = system: Staphylococcus aureus; experiment: Antibacterial activity against vancomycin-intermediate resistant Staphylococcus aureus clinical isolate after 24 hrs by broth microdilution method; type: functional
[6] = system: Streptococcus pyogenes; experiment: Antibacterial activity against Streptococcus pyogenes C203 after 24 hrs by broth microdilution method; type: functional; conditions: C203, 24 h
[7] = system: Enterococcus faecalis; experiment: Antibacterial activity against vancomycin A-resistant Enterococcus faecalis after 24 hrs by broth microdilution method; type: functional
[8] = system: Enterococcus faecium; experiment: Antibacterial activity against Enterococcus faecium after 24 hrs by broth microdilution method; type: functional
[9] = system: Enterococcus faecium; experiment: Antibacterial activity against vancomycin A-resistant Enterococcus faecium clinical isolate after 24 hrs by broth microdilution method; type: functional
[10] = system: Escherichia coli; experiment: Antibacterial activity against Escherichia coli SKF-12140 after 24 hrs by broth microdilution method; type: functional
[11] = system: Candida albicans; experiment: Antifungal activity against Candida albicans SKF-2270 after 24 hrs by broth microdilution method; type: functional
[12] = Toxicity assessed as hemolysis in erythrocytes at 180 mg/L; type: cell-based, Erythrocyte; conditions: human; for hemolysis at 180 mg/L: erythrocytes, read-out: Activity; for Activity: erythrocyte
[13] = Toxicity assessed as hemolysis in erythrocytes at 90 mg/L; type: cell-based, Erythrocyte; conditions: human; for hemolysis at 90 mg/L: erythrocytes, read-out: Activity; for Activity: erythrocyte

Row | SMILES | MIC ([1]; read-out: MIC) | MIC ([2]; read-out: MIC) | MIC [3] | MIC ([4]; read-out: MIC) | MIC [5] | MIC ([6]; read-out: MIC) | MIC ([7]; read-out: MIC) | MIC ([8]; read-out: MIC) | MIC ([9]; read-out: MIC) | MIC ([10]; read-out: MIC) | MIC ([11]; read-out: MIC) | hemolysis at 180 mg/L [12] | hemolysis at 90 mg/L [13] | other results
1 | CCCCCCCCCCCCCC(=O)N[C@@H](CC(N)=O)C(=O)NC[C@@H]1C(=O)N[C@H](c2ccc(O)cc2)C(=O)N[C@H](CCCN)C(=O)N[C@H](C(C)C)C(=O)N[C@@H](c2ccc(O)cc2)C(=O)N[C@H](c2ccc(O)cc2)C(=O)N[C@@H]([C@@H](C)O)C(=O)N[C@@H](Cc2ccccc2)C(=O)N[C@H](CCCN)C(=O)N[C@@H](c2ccc(O[C@H]3O[C@H](CO)[C@@H](O)[C@H](O)[C@@H]3O[C@H]3O[C@H](CO)[C@@H](O)[C@H](O)[C@@H]3O)cc2)C(=O)N[C@H]([C@@H](C)O)C(=O)N[C@@H](c2ccc(O)cc2)C(=O)NCC(=O)N[C@@H](CC(C)C)C(=O)N[C@H](C)C(=O)N[C@@H](c2ccc(O)c(Cl)c2)C(=O)O[C@@H]1C(N)=O | 4 µg/mL (≈ 1.51 µM) | 16 µg/mL (≈ 6.06 µM) | 16 µg/mL (≈ 6.06 µM) | 32 µg/mL (≈ 12.1 µM) | 32 µg/mL (≈ 12.1 µM) | 4 µg/mL (≈ 1.51 µM) | 4 µg/mL (≈ 1.51 µM) | 8 µg/mL (≈ 3.03 µM) | 4 µg/mL (≈ 1.51 µM) | > 32 µg/mL | > 32 µg/mL | 59% | 2% | –
2 | CC(C)C[C@@H]1NC(=O)CNC(=O)[C@H](c2ccc(O)cc2)NC(=O)[C@@H]([C@@H](C)O)NC(=O)[C@H](c2ccc(O[C@H]3O[C@H](CO)[C@@H](O)[C@H](O)[C@@H]3O[C@H]3O[C@H](CO)[C@@H](O)[C@H](O)[C@@H]3O)cc2)NC(=O)[C@@H](CCCN)NC(=O)[C@H](Cc2ccccc2)NC(=O)[C@H]([C@@H](C)O)NC(=O)[C@@H](c2ccc(O)cc2)NC(=O)[C@H](c2ccc(O)cc2)NC(=O)[C@@H](C(C)C)NC(=O)[C@@H](CCCN)NC(=O)[C@@H](c2ccc(O)cc2)NC(=O)[C@@H](CNC(=O)[C@H](CC(N)=O)NC(=O)c2ccc(OCc3cccc(Cl)c3)cc2)[C@@H](C(N)=O)OC(=O)[C@H](c2ccc(O)c(Cl)c2)NC(=O)[C@@H](C)NC1=O | 0.5 µg/mL (≈ 0.187 µM) | 1 µg/mL (≈ 0.374 µM) | 2 µg/mL (≈ 0.748 µM) | 8 µg/mL (≈ 2.99 µM) | 8 µg/mL (≈ 2.99 µM) | 0.13 µg/mL (≈ 0.0486 µM) | 0.13 µg/mL (≈ 0.0486 µM) | 0.5 µg/mL (≈ 0.187 µM) | 0.25 µg/mL (≈ 0.0935 µM) | > 32 µg/mL | > 32 µg/mL | 100% | 25% | –
3 | Cc1ccc(CC(=O)N[C@@H](CC(N)=O)C(=O)NC[C@@H]2C(=O)N[C@H](c3ccc(O)cc3)C(=O)N[C@H](CCCN)C(=O)N[C@H](C(C)C)C(=O)N[C@@H](c3ccc(O)cc3)C(=O)N[C@H](c3ccc(O)cc3)C(=O)N[C@@H]([C@@H](C)O)C(=O)N[C@@H](Cc3ccccc3)C(=O)N[C@H](CCCN)C(=O)N[C@@H](c3ccc(O[C@H]4O[C@H](CO)[C@@H](O)[C@H](O)[C@@H]4O[C@H]4O[C@H](CO)[C@@H](O)[C@H](O)[C@@H]4O)cc3)C(=O)N[C@H]([C@@H](C)O)C(=O)N[C@@H](c3ccc(O)cc3)C(=O)NCC(=O)N[C@@H](CC(C)C)C(=O)N[C@H](C)C(=O)N[C@@H](c3ccc(O)c(Cl)c3)C(=O)O[C@@H]2C(N)=O)cc1 | 0.002 µg/mL (≈ 0.000781 µM) | 0.001 µg/mL (≈ 0.00039 µM) | 0.002 µg/mL (≈ 0.000781 µM) | – | 0.008 µg/mL (≈ 0.00312 µM) | – | 0.002 µg/mL (≈ 0.000781 µM) | 0.004 µg/mL (≈ 0.00156 µM) | 0.002 µg/mL (≈ 0.000781 µM) | – | – | – | – | MIC [4]: 8 µg/mL (≈ 3.12 µM); MIC [6]: 0.06 µg/mL (≈ 0.0234 µM); MIC [10]: > 32 µg/mL; MIC [11]: > 32 µg/mL; Activity [12]: 0%; Activity [13]: 0%
4 | CCCCCCCC(=O)N[C@@H](CC(N)=O)C(=O)NC[C@@H]1C(=O)N[C@H](c2ccc(O)cc2)C(=O)N[C@H](CCCN)C(=O)N[C@H](C(C)C)C(=O)N[C@@H](c2ccc(O)cc2)C(=O)N[C@H](c2ccc(O)cc2)C(=O)N[C@@H]([C@@H](C)O)C(=O)N[C@@H](Cc2ccccc2)C(=O)N[C@H](CCCN)C(=O)N[C@@H](c2ccc(O[C@H]3O[C@H](CO)[C@@H](O)[C@H](O)[C@@H]3O[C@H]3O[C@H](CO)[C@@H](O)[C@H](O)[C@@H]3O)cc2)C(=O)N[C@H]([C@@H](C)O)C(=O)N[C@@H](c2ccc(O)cc2)C(=O)NCC(=O)N[C@@H](CC(C)C)C(=O)N[C@H](C)C(=O)N[C@@H](c2ccc(O)c(Cl)c2)C(=O)O[C@@H]1C(N)=O | – | – | 0.0005 µg/mL (≈ 0.000196 µM) | – | 0.002 µg/mL (≈ 0.000782 µM) | – | – | – | – | – | – | – | – | MIC [1]: 0.125 µg/mL (≈ 0.0489 µM); MIC [2]: 0.25 µg/mL (≈ 0.0978 µM); MIC [4]: 4 µg/mL (≈ 1.56 µM); MIC [6]: < 0.03 µg/mL; MIC [7]: 0.06 µg/mL (≈ 0.0235 µM); MIC [8]: 0.25 µg/mL (≈ 0.0978 µM); MIC [9]: 0.125 µg/mL (≈ 0.0489 µM); MIC [10]: > 32 µg/mL; MIC [11]: > 32 µg/mL; Activity [12]: 16%; Activity [13]: 0%
5 | CC(C)C[C@@H]1NC(=O)CNC(=O)[C@H](c2ccc(O)cc2)NC(=O)[C@@H]([C@@H](C)O)NC(=O)[C@H](c2ccc(O[C@H]3O[C@H](CO)[C@@H](O)[C@H](O)[C@@H]3O[C@H]3O[C@H](CO)[C@@H](O)[C@H](O)[C@@H]3O)cc2)NC(=O)[C@@H](CCCN)NC(=O)[C@H](Cc2ccccc2)NC(=O)[C@H]([C@@H](C)O)NC(=O)[C@@H](c2ccc(O)cc2)NC(=O)[C@H](c2ccc(O)cc2)NC(=O)[C@@H](C(C)C)NC(=O)[C@@H](CCCN)NC(=O)[C@@H](c2ccc(O)cc2)NC(=O)[C@@H](CNC(=O)[C@H](CC(N)=O)NC(=O)COc2ccccc2)[C@@H](C(N)=O)OC(=O)[C@H](c2ccc(O)c(Cl)c2)NC(=O)[C@@H](C)NC1=O | 8 µg/mL (≈ 3.12 µM) | 4 µg/mL (≈ 1.56 µM) | 8 µg/mL (≈ 3.12 µM) | 32 µg/mL (≈ 12.5 µM) | 16 µg/mL (≈ 6.24 µM) | 0.06 µg/mL (≈ 0.0234 µM) | 4 µg/mL (≈ 1.56 µM) | 4 µg/mL (≈ 1.56 µM) | 4 µg/mL (≈ 1.56 µM) | > 32 µg/mL | > 32 µg/mL | 0% | 0% | –
6 | CC(C)C[C@@H]1NC(=O)CNC(=O)[C@H](c2ccc(O)cc2)NC(=O)[C@@H]([C@@H](C)O)NC(=O)[C@H](c2ccc(O[C@H]3O[C@H](CO)[C@@H](O)[C@H](O)[C@@H]3O[C@H]3O[C@H](CO)[C@@H](O)[C@H](O)[C@@H]3O)cc2)NC(=O)[C@@H](CCCN)NC(=O)[C@H](Cc2ccccc2)NC(=O)[C@H]([C@@H](C)O)NC(=O)[C@@H](c2ccc(O)cc2)NC(=O)[C@H](c2ccc(O)cc2)NC(=O)[C@@H](C(C)C)NC(=O)[C@@H](CCCN)NC(=O)[C@@H](c2ccc(O)cc2)NC(=O)[C@@H](CNC(=O)[C@H](CC(N)=O)NC(=O)c2ccc(O)cc2)[C@@H](C(N)=O)OC(=O)[C@H](c2ccc(O)c(Cl)c2)NC(=O)[C@@H](C)NC1=O | 16 µg/mL (≈ 6.27 µM) | 32 µg/mL (≈ 12.5 µM) | 32 µg/mL (≈ 12.5 µM) | > 32 µg/mL | > 32 µg/mL | 0.5 µg/mL (≈ 0.196 µM) | 32 µg/mL (≈ 12.5 µM) | 32 µg/mL (≈ 12.5 µM) | 32 µg/mL (≈ 12.5 µM) | > 32 µg/mL | > 32 µg/mL | 4% | 0% | –
7 | CCCCOc1ccc(C(=O)N[C@@H](CC(N)=O)C(=O)NC[C@@H]2C(=O)N[C@H](c3ccc(O)cc3)C(=O)N[C@H](CCCN)C(=O)N[C@H](C(C)C)C(=O)N[C@@H](c3ccc(O)cc3)C(=O)N[C@H](c3ccc(O)cc3)C(=O)N[C@@H]([C@@H](C)O)C(=O)N[C@@H](Cc3ccccc3)C(=O)N[C@H](CCCN)C(=O)N[C@@H](c3ccc(O[C@H]4O[C@H](CO)[C@@H](O)[C@H](O)[C@@H]4O[C@H]4O[C@H](CO)[C@@H](O)[C@H](O)[C@@H]4O)cc3)C(=O)N[C@H]([C@@H](C)O)C(=O)N[C@@H](c3ccc(O)cc3)C(=O)NCC(=O)N[C@@H](CC(C)C)C(=O)N[C@H](C)C(=O)N[C@@H](c3ccc(O)c(Cl)c3)C(=O)O[C@@H]2C(N)=O)cc1 | 0.25 µg/mL (≈ 0.0959 µM) | 0.25 µg/mL (≈ 0.0959 µM) | 0.5 µg/mL (≈ 0.192 µM) | 4 µg/mL (≈ 1.53 µM) | 4 µg/mL (≈ 1.53 µM) | 0.125 µg/mL (≈ 0.048 µM) | 0.25 µg/mL (≈ 0.0959 µM) | 0.25 µg/mL (≈ 0.0959 µM) | 0.25 µg/mL (≈ 0.0959 µM) | > 32 µg/mL | > 32 µg/mL | 5% | 0% | –
8 | CC(C)C[C@@H]1NC(=O)CNC(=O)[C@H](c2ccc(O)cc2)NC(=O)[C@@H]([C@@H](C)O)NC(=O)[C@H](c2ccc(O[C@H]3O[C@H](CO)[C@@H](O)[C@H](O)[C@@H]3O[C@H]3O[C@H](CO)[C@@H](O)[C@H](O)[C@@H]3O)cc2)NC(=O)[C@@H](CCCN)NC(=O)[C@H](Cc2ccccc2)NC(=O)[C@H]([C@@H](C)O)NC(=O)[C@@H](c2ccc(O)cc2)NC(=O)[C@H](c2ccc(O)cc2)NC(=O)[C@@H](C(C)C)NC(=O)[C@@H](CCCN)NC(=O)[C@@H](c2ccc(O)cc2)NC(=O)[C@@H](CNC(=O)[C@H](CC(N)=O)NC(=O)CCc2ccccc2)[C@@H](C(N)=O)OC(=O)[C@H](c2ccc(O)c(Cl)c2)NC(=O)[C@@H](C)NC1=O | 2 µg/mL (≈ 0.781 µM) | 16 µg/mL (≈ 6.24 µM) | 2 µg/mL (≈ 0.781 µM) | 8 µg/mL (≈ 3.12 µM) | 8 µg/mL (≈ 3.12 µM) | ≤ 0.03 µg/mL | 2 µg/mL (≈ 0.781 µM) | 1 µg/mL (≈ 0.39 µM) | 2 µg/mL (≈ 0.781 µM) | > 32 µg/mL | > 32 µg/mL | 0% | 0% | –
